Experiments:
[1] = clinical; settings: human, in vivo, iv, Vdss
[2] = clinical; settings: human, in vivo, iv, CL
[3] = clinical; settings: human, in vivo, iv
[4] = clinical; settings: human, in vivo, iv; remark: listed apart in the source
[5] = clinical; settings: human, in vivo, iv, t1/2

Row | SMILES | Vd [1] | clearance [2] | fraction unbound [3] | MRT [4] | half-life [5]
1 | CC(=O)N(CC(O)CO)c1c(I)c(C(=O)NCC(O)CO)c(I)c(C(=O)NCC(O)CO)c1I (stereo not given) [IOHEXOL] | 0.16 L/kg | 0.12 L/h/kg | 1 | 1.3 h | 1.5 h
2 | CCC1(c2cccc(O)c2)CCCCN(C)C1 (stereo not given) [MEPTAZINOL] | 3.3 L/kg | 1.68 L/h/kg | 0.73 | 2 h | 1.7 h
3 | CO[C@@]1(NC(=O)C(C(=O)O)c2ccc(O)cc2)C(=O)N2C(C(=O)O)=C(CSc3nnnn3C)CO[C@@H]21 (stereo not given in full) [MOXALACTAM] | 0.17 L/kg | 0.0432 L/h/kg | 0.39 | 3.9 h | 2.9 h
4 | CN[C@@H]1[C@@H](O)[C@@H](O[C@@H]2[C@@H](O)[C@H](O[C@H]3OC(CN)=CC[C@H]3N)[C@@H](N)C[C@H]2N)OC[C@]1(C)O [SISOMICIN] | 0.19 L/kg | 0.06 L/h/kg | 0.15 | 3.2 h | 2.4 h
5 | O=C1C(O)=C([C@H]2CC[C@H](c3ccc(Cl)cc3)CC2)C(=O)c2ccccc21 [ATOVAQUONE] | 0.6 L/kg | 0.009 L/h/kg | 0.001 | 67 h | 63 h
6 | CC[C@@H](CO)NCCN[C@@H](CC)CO [ETHAMBUTOL] | 1.7 L/kg | 0.6 L/h/kg | 0.18 | 2.7 h | 3.1 h
7 | CC(=O)O[C@@]12CO[C@@H]1C[C@H](O)[C@@]1(C)C(=O)[C@H](O)C3=C(C)[C@@H](OC(=O)[C@H](O)[C@@H](NC(=O)OC(C)(C)C)c4ccccc4)C[C@@](O)([C@@H](OC(=O)c4ccccc4)[C@H]21)C3(C)C.O.O.O [DOCETAXEL] | 2.1 L/kg | 0.84 L/h/kg | 0.04 | 2.5 h | 11 h
8 | CCN(CC)CCNC(=O)c1cc(Br)c(N)cc1OC [BROMOPRIDE] | 3.1 L/kg | 0.78 L/h/kg | 0.6 | 4 h | 2.9 h
9 | CCN[C@@H]1C[C@H](N)[C@@H](O[C@H]2OC(CN)=CC[C@H]2N)[C@H](O)[C@H]1O[C@H]1OC[C@](C)(O)[C@H](NC)[C@H]1O [NETILMICIN] | 0.073 L/kg | 0.033 L/h/kg | 1 | 2.2 h | 3.2 h
10 | CCOC(=O)C1(c2ccccc2)CCN(C)CC1 [MEPERIDINE] | 2.3 L/kg | 0.294 L/h/kg | 0.42 | 6.4 h | 7.9 h
11 | CO/N=C(\C(=O)N[C@@H]1C(=O)N2C(C(=O)O)=C(CSc3nc(=O)c(=O)[nH]n3C)CS[C@H]12)c1csc(N)n1 [CEFTRIAXONE] | 0.085 L/kg | 0.0156 L/h/kg | 0.052 | 5.4 h | 8.6 h
12 | CN[C@H]1C(=O)N[C@@H]2Cc3ccc(cc3)Oc3cc4cc(c3O[C@@H]3O[C@H](C(=O)O)[C@@H](O)[C@H](O)[C@H]3NC(=O)CCCCCCCCC(C)C)Oc3ccc(cc3Cl)[C@@H](O)[C@@H]3NC(=O)[C@H](NC(=O)[C@@H]4NC(=O)[C@@H](NC2=O)c2cc(cc(O)c2Cl)Oc2cc1ccc2O)c1ccc(O)c(c1)-c1c(O[C@H]2O[C@H](CO)[C@@H](O)[C@H](O)[C@@H]2O)cc(O)cc1[C@@H](C(=O)NCCCN(C)C)NC3=O [DALBAVANCIN] | 0.14 L/kg | 0.0006 L/h/kg | 0.02 | 230 h | 170 h
13 | C[C@@H](O)[C@H]1C(=O)N2C(C(=O)O)=C(S[C@@H]3CN[C@H](C(=O)Nc4cccc(C(=O)O)c4)C3)[C@H](C)[C@H]12 | 0.12 L/kg | 0.027 L/h/kg | 0.1 | 4.4 h | 3.8 h
14 | CO/N=C(\C(=O)N[C@@H]1C(=O)N2C(C(=O)O)=C(C)CS[C@H]12)c1csc(N)n1 | 0.28 L/kg | 0.114 L/h/kg | 0.78 | 2.5 h | 2.1 h
15 | CCCCC1=NC2(CCCC2)C(=O)N1Cc1ccc(-c2ccccc2-c2nnn[nH]2)cc1 [IRBESARTAN] | 0.94 L/kg | 0.138 L/h/kg | 0.1 | 6.8 h | 14 h
16 | CN(C)CCCN1c2ccccc2Sc2ccccc21 [PROMAZINE] | 8.1 L/kg | 0.84 L/h/kg | 0.11 | 9.6 h | 7.9 h
17 | CNC(=O)c1cccc2c(Nc3ccc(NS(C)(=O)=O)cc3OC)c3cccc(C)c3nc12 [ASULACRINE] | 0.3 L/kg | 0.156 L/h/kg | 0.0011 | 1.9 h | 2.4 h
18 | O=C(Cc1cccs1)N[C@@H]1C(=O)N2C(C(=O)[O-])=C(C[n+]3ccccc3)CS[C@H]12 [CEPHALORIDINE] | 0.46 L/kg | 0.198 L/h/kg | 0.8 | 2.3 h | 1.5 h
19 | O=P(O)(O)OC(Cn1cncn1)(Cn1cncn1)c1ccc(F)cc1F [FOSFLUCONAZOLE] | 0.15 L/kg | 0.078 L/h/kg | 0.042 | 2 h | 2.1 h
20 | CCCC(C)C1(CC)C(=O)NC(=O)NC1=O (stereo not given) [PENTOBARBITAL] | 0.91 L/kg | 0.0282 L/h/kg | 0.39 | 32 h | 22 h
21 | COc1cccc(OC)c1C(=O)N[C@@H]1C(=O)N2[C@@H]1SC(C)(C)[C@@H]2C(=O)O [METHICILLIN] | 0.32 L/kg | 0.396 L/h/kg | 0.43 | 0.8 h | 0.64 h
22 | O=c1c(O)c(-c2ccc(O)c(O)c2)oc2cc(O)cc(O)c12 [QUERCETIN] | 0.12 L/kg | 0.66 L/h/kg | 0.009 | 0.2 h | 0.6 h
23 | C#C[C@]1(O)CC[C@H]2[C@@H]3CCc4cc(OS(=O)(=O)O)ccc4[C@H]3CC[C@@]21C | 2.3 L/kg | 0.282 L/h/kg | 0.011 | 8.2 h | 8.4 h
24 | CCCCC/C=C\CCC(=O)N[C@H]1[C@H](Oc2c3cc4cc2Oc2ccc(cc2Cl)[C@@H](O[C@@H]2O[C@H](CO)[C@@H](O)[C@H](O)[C@H]2NC(C)=O)[C@@H]2NC(=O)[C@H](NC(=O)[C@@H]4NC(=O)[C@H]4NC(=O)[C@@H](Cc5ccc(c(Cl)c5)O3)NC(=O)[C@H](N)c3ccc(O)c(c3)Oc3cc(O)cc4c3)c3ccc(O)c(c3)-c3c(O[C@H]4O[C@H](CO)[C@@H](O)[C@H](O)[C@@H]4O)cc(O)cc3[C@@H](C(=O)O)NC2=O)O[C@H](CO)[C@@H](O)[C@@H]1O [TEICOPLANIN A2-1] | 1.5 L/kg | 0.012 L/h/kg | 0.11 | 140 h | 150 h
25 | CO/N=C(\C(=O)N[C@@H]1C(=O)N2C(C(=O)[O-])=C(C[n+]3cccc4c3CCC4)CS[C@H]12)c1csc(N)n1 [CEFPIROME] | 0.24 L/kg | 0.114 L/h/kg | 0.9 | 2.1 h | 1.7 h
26 | CO[C@@]1(NC(=O)CSCC#N)C(=O)N2C(C(=O)O)=C(CSc3nnnn3C)CS[C@@H]21 [CEFMETAZOLE] | 0.13 L/kg | 0.09 L/h/kg | 0.15 | 1.5 h | 1.5 h
27 | Cc1ccc(C(=O)c2cc(O)c(O)c([N+](=O)[O-])c2)cc1 [TOLCAPONE] | 0.12 L/kg | 0.114 L/h/kg | 0.0012 | 1.1 h | 1.1 h
28 | O=C1c2cccc3c2[C@H](CCC3)CN1[C@@H]1CN2CCC1CC2 [PALONOSETRON] | 6.3 L/kg | 0.156 L/h/kg | 0.38 | 40 h | 39 h
29 | CCCNC(C)C(=O)Nc1ccccc1C (stereo not given) [PRILOCAINE] | 3.7 L/kg | 1.74 L/h/kg | 0.72 | 2.2 h | 1.8 h
30 | CCC1CN2CCC1CC2[C@@H](O)c1ccnc2ccc(OC)cc12 (stereo not given in full) [DIHYDROQUINIDINE] | 2.8 L/kg | 0.252 L/h/kg | 0.22 | 11 h | 5.7 h

From ChEMBL document CHEMBL1614632, “Trend analysis of a database of intravenous pharmacokinetic parameters in humans for 670 drug compounds” (Drug Metab Dispos, 2008)
